In the supplement of paper PMC10307832:

Legend:
Assay in all cases: relative viability (nuclei count vs DMSO), 5 days (fraction); higher = more cells survive
UMC-11 = tested on: UMC-11
Summary of the method: (§1)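 Five library-drug doses in √10 steps were combined with a fixed anchor-drug dose, or a single drug was given alone, by pin tool to lung cancer cell lines in 1536-well plates the day after seeding. Nuclei were stained and counted after 5 days. Relative viability is the nuclei count in treated wells over that in vehicle wells, taken as the median of duplicate plates.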

NCI-H23 = tested on: NCI-H23
Summary of the method: as §1

NCI-H1993 = tested on: NCI-H1993
Summary of the method: as §1

ABC-1 = tested on: ABC-1
Summary of the method: as §1

A-427 = tested on: A-427
Summary of the method: as §1

LC-2-ad = tested on: LC-2-ad
Summary of the method: as §1

NCI-H2228 = tested on: NCI-H2228
Summary of the method: as §1

NCI-H1734 = tested on: NCI-H1734
Summary of the method: as §1

HCC-15 = tested on: HCC-15
Summary of the method: as §1

SK-LU-1 = tested on: SK-LU-1
Summary of the method: as §1

NCI-H1650 = tested on: NCI-H1650
Summary of the method: as §1

NCI-H1793 = tested on: NCI-H1793
Summary of the method: as §1

EMC-BAC-2 = tested on: EMC-BAC-2
Summary of the method: as §1

COR-L23 = tested on: COR-L23
Summary of the method: as §1

NCI-H2023 = tested on: NCI-H2023
Summary of the method: as §1

NCI-H2405 = tested on: NCI-H2405
Summary of the method: as §1

NCI-H2009 = tested on: NCI-H2009
Summary of the method: as §1

ChaGo-K-1 = tested on: ChaGo-K-1
Summary of the method: as §1

HCC-366 = tested on: HCC-366
Summary of the method: as §1

HCC-78 = tested on: HCC-78
Summary of the method: as §1

NCI-H1944 = tested on: NCI-H1944
Summary of the method: as §1

HARA = tested on: HARA
Summary of the method: as §1

NCI-H838 = tested on: NCI-H838
Summary of the method: as §1

LK-2 = tested on: LK-2
Summary of the method: as §1

`CC(C)Oc1cc(Nc2nc(N[C@@H](C)c3ccc(F)cn3)ncc2Cl)n[nH]1` [AZ23] + N=C(N)NC(=N)NCCc1ccccc1 [Phenformin] (partner 250 µM) gave a relative viability (UMC-11; first compound 0.01 µM) of 0.341, a relative viability (UMC-11; first compound 0.03162 µM) of 0.305 and a relative viability (UMC-11; first compound 0.3162 µM) of 0.324. For the same molecule, the relative viability (NCI-H23; first compound 0.03162 µM) was 0.89, the relative viability (NCI-H23; first compound 0.3162 µM) was 0.783 and the relative viability (NCI-H1993; first compound 0.01 µM) was 0.501. It also gave a relative viability (NCI-H1993; first compound 0.03162 µM) of 0.475, a relative viability (NCI-H1993; first compound 0.3162 µM) of 0.441 and a relative viability (ABC-1; first compound 0.01 µM) of 0.211. For the same molecule, the relative viability (ABC-1; first compound 0.03162 µM) was 0.221, the relative viability (ABC-1; first compound 0.3162 µM) was 0.236 and the relative viability (A-427; first compound 0.01 µM) was 0.301. It also gave a relative viability (A-427; first compound 0.03162 µM) of 0.365, a relative viability (A-427; first compound 0.3162 µM) of 0.281 and a relative viability (LC-2-ad; first compound 0.01 µM) of 0.544. It also gave a relative viability (LC-2-ad; first compound 0.03162 µM) of 0.611, a relative viability (LC-2-ad; first compound 0.3162 µM) of 0.528 and a relative viability (NCI-H2228; first compound 0.01 µM) of 0.401. The relative viability (NCI-H2228; first compound 0.03162 µM) was 0.302, the relative viability (NCI-H2228; first compound 0.3162 µM) was 0.252 and the relative viability (NCI-H1734; first compound 0.01 µM) was 0.335. It also gave a relative viability (NCI-H1734; first compound 0.03162 µM) of 0.451, a relative viability (NCI-H1734; first compound 0.3162 µM) of 0.439 and a relative viability (HCC-15; first compound 0.01 µM) of 0.555. The relative viability (HCC-15; first compound 0.03162 µM) was 0.537, the relative viability (HCC-15; first compound 0.3162 µM) was 0.494 and the relative viability (SK-LU-1; first compound 0.03162 µM) was 0.586. It also gave a relative viability (SK-LU-1; first compound 0.3162 µM) of 0.517, a relative viability (NCI-H1650; first compound 0.03162 µM) of 0.537 and a relative viability (NCI-H1650; first compound 0.3162 µM) of 0.405. It also gave a relative viability (NCI-H1793; first compound 0.01 µM) of 0.366, a relative viability (NCI-H1793; first compound 0.03162 µM) of 0.439 and a relative viability (NCI-H1793; first compound 0.3162 µM) of 0.45. For the same molecule, the relative viability (EMC-BAC-2; first compound 0.01 µM) was 0.545, the relative viability (EMC-BAC-2; first compound 0.03162 µM) was 0.603 and the relative viability (EMC-BAC-2; first compound 0.3162 µM) was 0.526. It also gave a relative viability (COR-L23; first compound 0.01 µM) of 0.367, a relative viability (COR-L23; first compound 0.03162 µM) of 0.512 and a relative viability (COR-L23; first compound 0.3162 µM) of 0.462. For the same molecule, the relative viability (NCI-H2023; first compound 0.03162 µM) was 0.506, the relative viability (NCI-H2023; first compound 0.3162 µM) was 0.481 and the relative viability (NCI-H2405; first compound 0.01 µM) was 0.33. It also gave a relative viability (NCI-H2405; first compound 0.03162 µM) of 0.429, a relative viability (NCI-H2405; first compound 0.3162 µM) of 0.382 and a relative viability (NCI-H2009; first compound 0.01 µM) of 0.508. The relative viability (NCI-H2009; first compound 0.03162 µM) was 0.539, the relative viability (NCI-H2009; first compound 0.3162 µM) was 0.63 and the relative viability (ChaGo-K-1; first compound 0.01 µM) was 0.497. It also gave a relative viability (ChaGo-K-1; first compound 0.03162 µM) of 0.458, a relative viability (ChaGo-K-1; first compound 0.3162 µM) of 0.529 and a relative viability (HCC-366; first compound 0.01 µM) of 0.614. It also gave a relative viability (HCC-366; first compound 0.03162 µM) of 0.641, a relative viability (HCC-366; first compound 0.3162 µM) of 0.658 and a relative viability (HCC-78; first compound 0.01 µM) of 0.692. It also gave a relative viability (HCC-78; first compound 0.03162 µM) of 0.656, a relative viability (HCC-78; first compound 0.3162 µM) of 0.583 and a relative viability (NCI-H1944; first compound 0.01 µM) of 0.197. For the same molecule, the relative viability (NCI-H1944; first compound 0.03162 µM) was 0.225, the relative viability (NCI-H1944; first compound 0.3162 µM) was 0.219 and the relative viability (HARA; first compound 0.03162 µM) was 0.589. For the same molecule, the relative viability (HARA; first compound 0.3162 µM) was 0.471, the relative viability (NCI-H838; first compound 0.01 µM) was 0.546 and the relative viability (NCI-H838; first compound 0.03162 µM) was 0.586. For the same molecule, the relative viability (NCI-H838; first compound 0.3162 µM) was 0.597, the relative viability (LK-2; first compound 0.01 µM) was 0.303 and the relative viability (LK-2; first compound 0.03162 µM) was 0.401. The relative viability (LK-2; first compound 0.3162 µM) was 0.311.
